Results from patent US6339102B1, “Method and composition for treating and preventing retinal damage” (The United States of America as represented by the …, priority 1999, dated 2002).
Read-outs that look alike come from different tables or passages of the source.

Tests used:
[1] = tested on: dissociated retinal cells; experiment: MTT viability of dissociated retinal cells exposed to NaCN and 2-deoxyglucose (simulated ischemia); assay type: cell-based, rabbit; details: NaCN and 2-DG giving approximately 60% toxicity, p<0.004
cultured neurons = experiment: MTT neuroprotection assay in cultured neurons after H2O2 oxidative insult; assay type: cell-based; details: for % Neuroprotection: 4 h pre-treatment, 50 μM H2O2 30 min, MTT after 24 h, mean±SEM
Procedure: In a separate series of experiments, cultured neurons were pre-treated with four different concentrations of DHL with or without 10 mM SPBN for four hours. At the conclusion of the preincubation period, an oxidative insult was applied by adding 50 μM of hydrogen peroxide (H2O2) for an additional 30 min. Medium containing the H2O2 and antioxidants was then removed and Minimum Essential Medium (MEM) was added to the wells for 24 hours. Neuroprotection was then assessed by conducting the calorimetric MTT assay. One way ANOVA with significance of differences between means assessed by Tukey-Kramer Multiple Comparisons test.
Data are depicted as means±SEM (n=8). Significance was determined by one way ANOVA, and differences between the means was assessed by the Tukey-Kramer test. (See table 1).

focal ischemia [2] = details: rat; temporary model: given 3 hours or even 5 hours after start of recirculation; cited from earlier work
traumatic brain injury = details: administered either 15 minutes prior or 30 minutes post injury; preliminary studies; cited from earlier work
ferrous chloride = details: mice, intracerebral lethal injection of ferrous chloride; cited from earlier work
focal ischemia [3] = details: initiation of treatment delayed as long as 12 hours; cited from earlier work
[4] = in vivo; cited from earlier work
[5] = cited from earlier work
cortical contusion = details: rat; cited from earlier work
retinal ganglion cells = details: 500 ng by intraocular injection; Klocker et al.; cited from earlier work
striatal lesions = details: 100 mg/kg i.p. 30 min prior and q 8 hours for 48 hours after insult; or 300 mg/kg ip repeated; cited from earlier work
[6] = Aldrich catalog description; cited from earlier work
[7] = tested on: ischemia-perfusion injury; details: gerbil; cited from earlier work
[8] = tested on: ischemia-perfusion injury; details: rat; cited from earlier work
lesions of striatum = details: rats; cited from earlier work
[9] = in vivo; cited from earlier work; remark: listed apart in the source

SMILES: O=C(O)CCCC[C@@H](S)CCS (racemic) [DHL, dihydrolipoic acid]
- protection against damage from NaCN and 2-DG (maximum effect) ([1]; DHL 0.3 millimolar co-administered): approximately 60%
- Emax ([1]; Oryctolagus cuniculus, DHL 0.1 millimolar co-administered, read-out: protection against damage from NaCN and 2-DG (maximum effect)): ~60%
- % Neuroprotection (cultured neurons; DHL 3 μM): 1.31 ± 5.23%
- % Neuroprotection (cultured neurons; DHL 10 μM): −3.68 ± 5.14%
- % Neuroprotection (cultured neurons; DHL 30 μM): 7.04 ± 7.38%
- % Neuroprotection (cultured neurons; DHL 100 μM): 28.48 ± 5.83%

SMILES: CC(C)(C)[N+]([O-])=Cc1ccc(S(=O)(=O)[O-])cc1S(=O)(=O)[O-].[Na+].[Na+] [NXY-059]
- efficacy in temporary and permanent focal ischemia (focal ischemia [2]): effective
- volume of necrosis after traumatic brain injury (traumatic brain injury): effective in decreasing volume of necrosis

SMILES: CC(C)(C)[N+]([O-])=Cc1ccccc1 [PBN, α-Phenyl-N-tert-butylnitrone]
- seizures and time to death after ferrous chloride (ferrous chloride): minimized seizures and delayed time to death
- neuroprotection in rat focal ischemia model (focal ischemia [3]): neuroprotective
- blood brain barrier crossing [4]: crosses the blood brain barrier
- toxicity ([5]; in high concentrations): somewhat toxic
- toxicity ([5]; very high doses): toxicity is a problem
- accumulation of lactate following cortical contusion (cortical contusion): attenuate

SMILES: CC(C)(C)[N+]([O-])=Cc1ccccc1S(=O)(=O)O [SPBN, N-tert-Butyl-α-[2-sulfophenyl]-nitrone]
- retinal ganglion cells rescued after axotomy (retinal ganglion cells): 27%
- protection against striatal toxin lesions (lesion volume) (striatal lesions): protective
- effect of SPBN on the neuroprotective efficacy of DHL (cultured neurons; 10 mM SPBN, at three of the four DHL concentrations tested): significantly increased
- water solubility [6]: water-soluble

SMILES: O=C(O)CCCCC1CCSS1 (stereo not drawn) [αLA, Alpha-lipoic acid]
- neuroprotection against ischemia-perfusion injury [7]: neuro-protective
- neuroprotection against ischemia-perfusion injury [8]: neuro-protective
- efficacy against NMDA and malonic acid lesions of striatum (lesions of striatum): effective
- clinical safety [9]: clinically safe
